Measurements taken from PubChem BioAssay (NCI).
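Test compounds were applied to cells in 96-well plates for 48 hours at 5 doses. GI50: concentration for 50% inhibition of growth. The concentration for full growth arrest is given as TGI.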

What was measured:
Assay in all cases: NCI anticancer screen, dose series, 48 h
[1] = system: CCRF-CEM leukemia
[2] = system: SNB-19 CNS
[3] = system: A549 NSCLC
[4] = system: SF-539 CNS
[5] = system: LOX IMVI melanoma
[6] = system: SK-MEL-28 melanoma
[7] = system: TK-10 renal
[8] = system: HS 578T breast
[9] = system: HCT-15 colon
[10] = system: RXF 393 renal
[11] = system: M14 melanoma
[12] = system: SK-MEL-5 melanoma
[13] = system: RPMI-8226 leukemia
[14] = system: SF-268 CNS
[15] = system: HOP-62 NSCLC
[16] = system: OVCAR-5 ovarian
[17] = system: DU-145 prostate
[18] = system: T-47D breast
[19] = system: NCI-H23 lung
[20] = system: NCI-H226 lung
[21] = system: SF-295 CNS
[22] = system: MDA-MB-231 breast
[23] = system: UACC-62 melanoma
[24] = system: NCI/ADR-RES ovarian
[25] = system: UACC-257 melanoma
[26] = system: NCI-H522 lung
[27] = system: PC-3 prostate
[28] = system: OVCAR-8 ovarian
[29] = system: MDA-MB-435

O=C1NCN(c2ccccc2)C12CCN(CCCC(c1ccc(F)cc1)c1ccc(F)cc1)CC2
GI50 [1]: 2.14 µM | TGI [1]: 6.09 µM | GI50 [2]: 2.99 µM | TGI [2]: 12.8 µM | GI50 [3]: 2.56 µM | TGI [3]: 9.68 µM | GI50 [4]: 1.71 µM | TGI [4]: 3.13 µM | GI50 [5]: 1.8 µM | TGI [5]: 3.32 µM | GI50 [6]: 1.62 µM | TGI [6]: 3.1 µM | GI50 [7]: 1.79 µM | TGI [7]: 4.11 µM | GI50 [8]: 2.17 µM | TGI [8]: 6.51 µM | GI50 [9]: 2.09 µM | TGI [9]: 4.71 µM | GI50 [10]: 1.72 µM | TGI [10]: 4.37 µM | GI50 [11]: 1.67 µM | TGI [11]: 3.18 µM | GI50 [12]: 1.6 µM | TGI [12]: 2.97 µM | GI50 [13]: 1.82 µM | TGI [13]: 4.1 µM | GI50 [14]: 2.04 µM | TGI [14]: 4.78 µM | GI50 [15]: 1.84 µM | TGI [15]: 3.52 µM | GI50 [16]: 3.76 µM | TGI [16]: 16.4 µM | GI50 [17]: 3.25 µM | TGI [17]: 11.2 µM | GI50 [18]: 2.43 µM | TGI [18]: 6.49 µM | GI50 [19]: 3.31 µM | TGI [19]: 15.2 µM | GI50 [20]: 7.36 µM | TGI [20]: 35.5 µM | GI50 [21]: 1.5 µM | TGI [21]: 3.1 µM | GI50 [22]: 1.89 µM | TGI [22]: 3.88 µM | GI50 [23]: 1.68 µM | TGI [23]: 3.15 µM | GI50 [24]: 2.85 µM | TGI [24]: 10.2 µM | GI50 [25]: 1.59 µM | TGI [25]: 3.15 µM | GI50 [26]: 1.51 µM | TGI [26]: 2.93 µM | GI50 [27]: 2.49 µM | TGI [27]: 10.7 µM | GI50 [28]: 1.6 µM | TGI [28]: 3.05 µM | GI50 [29]: 1.75 µM
